Test results reported in ChEMBL document CHEMBL1201862, “PubChem BioAssay data set” (2004).
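All cell lines were grown in 96-well plates and treated with compound for 48 hours. The concentration for 50% growth inhibition is given as GI50.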 The source made the active and inactive calls. No stated cut-off is given here; in the data, active = GI50 up to about 1.1 µM and inactive = higher.

How the values were obtained:
Assay in all cases: inhibition of tumour cell growth, NCI panel, 48 h
786-0 = tested on: 786-0
A498 = tested on: A498
A549 = tested on: A549
ACHN = tested on: ACHN
CAKI-1 = tested on: CAKI-1
CCRF-CEM = tested on: CCRF-CEM
COLO 205 = tested on: COLO 205
DLD-1 = tested on: DLD-1
DMS-114 = tested on: DMS-114
DMS-273 = tested on: DMS-273
EKVX = tested on: EKVX
HCC 2998 = tested on: HCC 2998
HCT-116 = tested on: HCT-116
HCT-15 = tested on: HCT-15
HL-60 = tested on: HL-60
HOP-18 = tested on: HOP-18
HOP-62 = tested on: HOP-62
HOP-92 = tested on: HOP-92
HT-29 = tested on: HT-29
IGROV-1 = tested on: IGROV-1
K562 = tested on: K562
KM12 = tested on: KM12
LXFL 529 = tested on: LXFL 529
M14 = tested on: M14
M19-MEL = tested on: M19-MEL
Malme-3M = tested on: Malme-3M
NCI-H226 = tested on: NCI-H226
NCI-H23 = tested on: NCI-H23
NCI-H460 = tested on: NCI-H460
NCI-H522 = tested on: NCI-H522
OVCAR-3 = tested on: OVCAR-3
OVCAR-4 = tested on: OVCAR-4
OVCAR-5 = tested on: OVCAR-5
OVCAR-8 = tested on: OVCAR-8
RXF 393 = tested on: RXF 393
RXF 631 = tested on: RXF 631
SF-268 = tested on: SF-268
SF-295 = tested on: SF-295
SF-539 = tested on: SF-539
SK-MEL-28 = tested on: SK-MEL-28
SK-MEL-2 = tested on: SK-MEL-2
SK-MEL-5 = tested on: SK-MEL-5
SK-OV-3 = tested on: SK-OV-3
SN12C = tested on: SN12C
SNB-19 = tested on: SNB-19
SNB-75 = tested on: SNB-75
SNB-78 = tested on: SNB-78
SR = tested on: SR
SW-620 = tested on: SW-620
TK-10 = tested on: TK-10
U-251 = tested on: U-251
UACC-257 = tested on: UACC-257
UACC-62 = tested on: UACC-62
UO-31 = tested on: UO-31
XF498 = tested on: XF498

Structure (SMILES): CC(C)S(=O)(=O)ON1C(=O)c2ccc([N+](=O)[O-])cc2C1=O
- GI50 (786-0): > 100 µM (inactive)
- GI50 (A498): > 100 µM (inactive)
- GI50 (A549): > 100 µM (inactive)
- GI50 (ACHN): > 100 µM (inactive)
- GI50 (CAKI-1): > 100 µM (inactive)
- GI50 (CCRF-CEM): > 100 µM (inactive)
- GI50 (COLO 205): > 100 µM (inactive)
- GI50 (DLD-1): > 100 µM (inactive)
- GI50 (DMS-114): > 100 µM (inactive)
- GI50 (DMS-273): > 100 µM (inactive)
- GI50 (EKVX): > 100 µM (inactive)
- GI50 (HCC 2998): > 100 µM (inactive)
- GI50 (HCT-116): > 100 µM (inactive)
- GI50 (HCT-15): > 100 µM
- GI50 (HL-60): > 100 µM (inactive)
- GI50 (HOP-18): > 100 µM (inactive)
- GI50 (HOP-62): > 100 µM (inactive)
- GI50 (HOP-92): 41.9 µM (inactive)
- GI50 (HT-29): > 100 µM (inactive)
- GI50 (IGROV-1): > 100 µM (inactive)
- GI50 (K562): > 100 µM (inactive)
- GI50 (KM12): > 100 µM (inactive)
- GI50 (LXFL 529): > 100 µM (inactive)
- GI50 (M14): > 100 µM (inactive)
- GI50 (M19-MEL): > 100 µM (inactive)
- GI50 (Malme-3M): > 100 µM (inactive)
- GI50 (NCI-H226): > 100 µM (inactive)
- GI50 (NCI-H23): > 100 µM (inactive)
- GI50 (NCI-H460): > 100 µM (inactive)
- GI50 (NCI-H522): > 100 µM (inactive)
- GI50 (OVCAR-3): > 100 µM (inactive)
- GI50 (OVCAR-4): > 100 µM (inactive)
- GI50 (OVCAR-5): > 100 µM (inactive)
- GI50 (OVCAR-8): > 100 µM (inactive)
- GI50 (RXF 393): > 100 µM (inactive)
- GI50 (RXF 631): > 100 µM (inactive)
- GI50 (SF-268): > 100 µM (inactive)
- GI50 (SF-295): > 100 µM (inactive)
- GI50 (SF-539): > 100 µM (inactive)
- GI50 (SK-MEL-28): > 100 µM (inactive)
- GI50 (SK-MEL-2): > 100 µM (inactive)
- GI50 (SK-MEL-5): > 100 µM (inactive)
- GI50 (SK-OV-3): > 100 µM (inactive)
- GI50 (SN12C): > 100 µM (inactive)
- GI50 (SNB-19): > 100 µM (inactive)
- GI50 (SNB-75): > 100 µM (inactive)
- GI50 (SNB-78): > 100 µM (inactive)
- GI50 (SR): > 100 µM (inactive)
- GI50 (SW-620): > 100 µM (inactive)
- GI50 (TK-10): > 100 µM (inactive)
- GI50 (U-251): > 100 µM (inactive)
- GI50 (UACC-257): > 100 µM (inactive)
- GI50 (UACC-62): > 100 µM (inactive)
- GI50 (UO-31): > 100 µM (inactive)
- GI50 (XF498): > 100 µM (inactive)
